Data from US12213479B2, “Monoterpenoid/phenylpropanoid-containing compounds and methods of their making and use as herbicides” (KITTRICH CORPORATION, priority 2016, dated 2025).

Tested on: Palmer Amaranth (Amaranthus palmeri)
Experiment: Toxicity assay (probit LC50), Palmer amaranth
Format: in vivo
Source text: Palmer amaranth seeds were obtained from the Department of Agronomy at Iowa State University. Individual seeds were sown for each pot (1.5″ wide×3″ deep) with approximately 7.5 g of soil for each plot. Five seeds/plot were sown into numerous plots. After one month of germination, germinated plants were counted in each plot and this number was used for the total number of plants challenged per plot in the toxicity assessment
The total number of plants were counted in each plot in 24×6 hexagonal small plot planter tray. The number of germinated seeds in each plot was enumerated after one month, and for each plot this number was recorded and used as the total for each plot. Differing concentrations of thymyloxyacetic acid was applied in 5% Triton-X 100 and 1:1 molar ratio potassium hydroxide:thymyloxyacetic acid to aid in the solubility of the compound in water. Ten mL of solution was applied to each plot, and the mortality of the plants was assessed at 3 days and 2 weeks post application (for some treatments). Mortality at these time points were enumerated out of the total plants germinated in each plot at the beginning of the assay. At both time points, the total number of dead plants and total number of plants at the beginning of the assay were recorded for each observation. A Probit model was used to calculate the LC50 values for each of the compounds explored in this assay. A formulation control (with no active ingredient) was screened against a number of plants and factored into the final probit model. This formulation control had little-to-no effect by itself.

Cc1ccc(C(C)C)c(OCC(=O)O)c1 [thymyloxyacetic acid, 2-(2-isopropyl-5-methylphenoxy)acetic acid]
LC50 Value (Palmer Amaranth (Table 6)): 1700 ppm | Selective Toxicity Compared to Bluegrass (Palmer Amaranth compared to bluegrass): 2.06 | LC50 Value (Palmer Amaranth, 2-week post application, probit): 1350 ppm | LC50 Value (Palmer Amaranth, 3-day post application, probit): 1700 ppm
